Source: EP1383793B1 (priority 2000, dated 2001)
Like-named read-outs stand apart in the source and are kept apart here. Positions of bridges follow the written chain, without caps; N, C: chain ends. Residues, ends and D or L forms follow the SMILES beside them. No end group written: not given here. *: point of attachment. Biotin = O=C1N[C@H]2[C@H](CS[C@H]2CCCCC(=O)*)N1

Tests used:
[1] = molecular target: human IGF-1 receptor (HIGF-1R) (Homo sapiens, UniProt P08069); assay: 125I-IGF-1 competition binding assay on solubilised purified receptor; settings: for Ratio: Kd HIGF1R / Kd HIR
Sequence of human IGF-1 receptor (HIGF-1R) (P08069 31-736 limits assumed): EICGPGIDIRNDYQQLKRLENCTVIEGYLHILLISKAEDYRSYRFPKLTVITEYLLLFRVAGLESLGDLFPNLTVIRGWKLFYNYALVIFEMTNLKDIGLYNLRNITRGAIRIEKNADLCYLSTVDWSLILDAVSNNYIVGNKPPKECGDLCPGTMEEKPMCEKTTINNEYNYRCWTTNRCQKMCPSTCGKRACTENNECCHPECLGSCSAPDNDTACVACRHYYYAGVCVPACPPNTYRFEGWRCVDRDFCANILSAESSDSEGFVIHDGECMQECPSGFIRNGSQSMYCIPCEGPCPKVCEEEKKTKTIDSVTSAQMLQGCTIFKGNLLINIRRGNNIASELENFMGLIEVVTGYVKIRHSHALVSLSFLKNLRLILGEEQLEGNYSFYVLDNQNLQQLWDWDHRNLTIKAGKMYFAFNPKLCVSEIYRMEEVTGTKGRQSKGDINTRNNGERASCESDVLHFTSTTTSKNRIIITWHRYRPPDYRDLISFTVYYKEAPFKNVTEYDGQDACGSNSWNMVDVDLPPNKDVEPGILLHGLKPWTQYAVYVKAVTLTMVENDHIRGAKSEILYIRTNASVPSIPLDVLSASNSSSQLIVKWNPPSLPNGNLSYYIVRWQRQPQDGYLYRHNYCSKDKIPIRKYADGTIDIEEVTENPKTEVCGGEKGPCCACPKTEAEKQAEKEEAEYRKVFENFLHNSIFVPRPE
Sequence of human IGF-1 receptor (HIGF-1R) (P08069 741-1367 limits assumed): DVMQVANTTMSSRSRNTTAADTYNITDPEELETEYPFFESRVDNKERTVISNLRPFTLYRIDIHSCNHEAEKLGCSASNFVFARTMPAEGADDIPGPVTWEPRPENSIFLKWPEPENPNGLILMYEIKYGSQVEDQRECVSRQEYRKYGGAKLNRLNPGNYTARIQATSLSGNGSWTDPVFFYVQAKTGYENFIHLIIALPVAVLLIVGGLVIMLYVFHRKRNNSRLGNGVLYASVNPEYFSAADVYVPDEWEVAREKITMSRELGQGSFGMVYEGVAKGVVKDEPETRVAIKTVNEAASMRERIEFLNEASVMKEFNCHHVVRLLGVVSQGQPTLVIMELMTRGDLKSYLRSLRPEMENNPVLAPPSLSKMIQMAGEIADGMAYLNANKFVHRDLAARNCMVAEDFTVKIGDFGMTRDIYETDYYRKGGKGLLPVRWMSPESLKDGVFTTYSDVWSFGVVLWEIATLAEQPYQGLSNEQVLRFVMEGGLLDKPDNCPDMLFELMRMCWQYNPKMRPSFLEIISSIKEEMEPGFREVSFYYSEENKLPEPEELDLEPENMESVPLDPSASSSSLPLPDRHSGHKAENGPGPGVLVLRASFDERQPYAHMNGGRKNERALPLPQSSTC

[2] = molecular target: T1, human insulin receptor (HIR) (Homo sapiens, UniProt P06213); assay: 125I-insulin competition binding assay on solubilised purified receptor
T1 construct: made in house
T1 sequence (P06213 28-758 limits assumed): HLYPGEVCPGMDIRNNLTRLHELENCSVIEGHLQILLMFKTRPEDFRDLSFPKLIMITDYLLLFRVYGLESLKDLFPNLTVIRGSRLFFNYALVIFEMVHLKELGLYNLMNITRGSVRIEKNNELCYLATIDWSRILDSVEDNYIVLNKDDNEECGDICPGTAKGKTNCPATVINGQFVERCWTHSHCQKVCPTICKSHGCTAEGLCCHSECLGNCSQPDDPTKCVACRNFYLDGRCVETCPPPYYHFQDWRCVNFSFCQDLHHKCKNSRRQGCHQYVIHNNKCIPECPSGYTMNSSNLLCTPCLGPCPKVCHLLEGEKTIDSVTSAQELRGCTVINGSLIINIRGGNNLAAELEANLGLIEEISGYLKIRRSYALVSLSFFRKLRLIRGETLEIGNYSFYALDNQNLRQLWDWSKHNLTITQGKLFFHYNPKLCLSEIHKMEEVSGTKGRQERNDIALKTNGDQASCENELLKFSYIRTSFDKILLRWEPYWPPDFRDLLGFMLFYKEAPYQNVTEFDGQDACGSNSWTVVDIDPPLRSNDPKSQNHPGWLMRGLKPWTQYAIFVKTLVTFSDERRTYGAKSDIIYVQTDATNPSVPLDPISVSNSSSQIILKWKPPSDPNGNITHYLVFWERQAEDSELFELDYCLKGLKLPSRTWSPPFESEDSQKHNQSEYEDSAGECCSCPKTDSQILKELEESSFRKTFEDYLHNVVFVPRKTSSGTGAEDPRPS
T1 sequence (P06213 763-1382 limits assumed): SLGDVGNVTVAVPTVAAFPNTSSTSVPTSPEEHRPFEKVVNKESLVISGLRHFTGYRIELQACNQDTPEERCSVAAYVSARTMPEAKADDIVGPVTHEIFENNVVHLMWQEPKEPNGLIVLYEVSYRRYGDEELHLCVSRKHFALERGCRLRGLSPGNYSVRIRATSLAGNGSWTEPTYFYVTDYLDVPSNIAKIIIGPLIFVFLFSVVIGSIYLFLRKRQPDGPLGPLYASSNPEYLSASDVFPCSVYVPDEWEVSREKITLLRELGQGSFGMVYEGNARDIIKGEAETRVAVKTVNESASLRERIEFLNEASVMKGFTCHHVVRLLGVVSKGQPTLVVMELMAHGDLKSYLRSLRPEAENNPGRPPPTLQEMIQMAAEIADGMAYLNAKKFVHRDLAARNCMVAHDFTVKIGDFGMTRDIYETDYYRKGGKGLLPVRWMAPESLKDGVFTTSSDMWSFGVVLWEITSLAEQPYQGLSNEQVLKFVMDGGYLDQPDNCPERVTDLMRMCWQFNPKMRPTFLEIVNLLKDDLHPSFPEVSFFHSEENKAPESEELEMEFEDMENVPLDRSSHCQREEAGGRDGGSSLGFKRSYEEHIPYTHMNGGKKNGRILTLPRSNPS

adipocytes = assay: 3H-glucose uptake into adipocytes (fat cell assay, FFC); type: cell-based, Mouse; set-up: key to FFC: 0 is no effect; + is agonist; - is antagonist

| Compound | Kd [1] [µM] | Kd ([2]; read-out: Kd (µM) HIR) [µM] | Kd ([2]; read-out: HIR affinity) [µM] | further results |
| --- | --- | --- | --- | --- |
| CC[C@H](C)[C@H](NC(=O)[C@@H](N)CCCCN)C(=O)NCC(=O)NCC(=O)N[C@@H](CCC(N)=O)C(=O)NCC(=O)N[C@@H](CCC(N)=O)C(=O)N[C@@H](Cc1c[nH]cn1)C(=O)N[C@@H](CCC(N)=O)C(=O)N[C@@H](CC(=O)O)C(=O)NCC(=O)N[C@@H](CC(N)=O)C(=O)N[C@@H](Cc1ccccc1)C(=O)N[C@@H](Cc1ccc(O)cc1)C(=O)N[C@@H](CC(=O)O)C(=O)N[C@@H](Cc1c[nH]c2ccccc12)C(=O)N[C@@H](Cc1ccccc1)C(=O)N[C@H](C(=O)N[C@@H](CCC(=O)O)C(=O)N[C@@H](C)C(=O)N[C@@H](CC(C)C)C(=O)N[C@@H](C)C(=O)N[C@@H](CCCCN)C(=O)N[C@@H](CCCCNC(=O)CCCC[C@@H]1SC[C@@H]2NC(=O)N[C@@H]21)C(N)=O)C(C)C [Clone D101] (H-KIGGQGQHQDGNFYDWFVEALAKK(Biotin)-NH2) | 13 | – | – | – |
| CC(C)C[C@H](NC(=O)[C@H](C)NC(=O)[C@H](Cc1c[nH]c2ccccc12)NC(=O)[C@H](CO)NC(=O)[C@H](Cc1c[nH]cn1)NC(=O)CNC(=O)[C@@H](N)CCCCN)C(=O)N[C@H](C(=O)N[C@@H](CCCNC(=N)N)C(=O)N[C@@H](Cc1c[nH]cn1)C(=O)N[C@H](C(=O)N[C@@H](CC(=O)O)C(=O)N[C@@H](CCCNC(=N)N)C(=O)N[C@@H](CC(C)C)C(=O)N[C@@H](Cc1ccccc1)C(=O)N[C@@H](Cc1ccc(O)cc1)C(=O)N[C@@H](CCC(=O)O)C(=O)N[C@@H](Cc1c[nH]c2ccccc12)C(=O)N[C@@H](Cc1ccccc1)C(=O)N[C@@H](CC(=O)O)C(=O)N[C@@H](CC(C)C)C(=O)N[C@@H](CCCCN)C(=O)N[C@@H](CCCCNC(=O)CCCC[C@@H]1SC[C@@H]2NC(=O)N[C@@H]21)C(N)=O)C(C)C)C(C)C [Clone D104] (H-KGHSWALVRHVDRLFYEWFDLKK(Biotin)-NH2) | > 20 | 20 | – | – |
| C[C@@H](O)[C@H](NC(=O)[C@@H]1CCCN1C(=O)[C@H](CCCCN)NC(=O)[C@H](CC(=O)O)NC(=O)[C@H](CCCNC(=N)N)NC(=O)[C@@H](N)CCCCN)C(=O)N[C@@H](CC(=O)O)C(=O)N[C@@H](CCC(N)=O)C(=O)N[C@@H](CCC(=O)O)C(=O)N[C@@H](CCC(=O)O)C(=O)N[C@@H](CCC(N)=O)C(=O)N[C@@H](CC(N)=O)C(=O)N[C@@H](Cc1c[nH]c2ccccc12)C(=O)N[C@@H](CO)C(=O)N[C@@H](Cc1ccccc1)C(=O)N[C@@H](Cc1ccc(O)cc1)C(=O)N[C@@H](CCC(=O)O)C(=O)N[C@@H](Cc1c[nH]c2ccccc12)C(=O)N[C@@H](Cc1ccccc1)C(=O)N[C@@H](CCCNC(=N)N)C(=O)N[C@@H](Cc1c[nH]cn1)C(=O)N[C@@H](CCCCN)C(=O)N[C@@H](CCCCNC(=O)CCCC[C@@H]1SC[C@@H]2NC(=O)N[C@@H]21)C(N)=O [Clone D105] (H-KRDKPTDQEEQNWSFYEWFRHKK(Biotin)-NH2) | 12 | 2.8 | – | – |
| CC(C)C[C@H](NC(=O)[C@H](CCC(N)=O)NC(=O)[C@H](CCC(N)=O)NC(=O)[C@H](CO)NC(=O)[C@H](CCCNC(=N)N)NC(=O)[C@H](CS)NC(=O)[C@H](CC(N)=O)NC(=O)[C@H](Cc1c[nH]c2ccccc12)NC(=O)[C@H](Cc1ccccc1)NC(=O)[C@@H](NC(=O)[C@@H](N)CCCCN)C(C)C)C(=O)N[C@@H](CC(=O)O)C(=O)N[C@@H](Cc1ccccc1)C(=O)N[C@@H](Cc1ccc(O)cc1)C(=O)N[C@@H](CCC(=O)O)C(=O)N[C@@H](Cc1c[nH]c2ccccc12)C(=O)N[C@@H](Cc1ccccc1)C(=O)N[C@@H](CCC(=O)O)C(=O)N[C@@H](CCC(N)=O)C(=O)N[C@@H](C)C(=O)N[C@@H](C)C(=O)N[C@@H](CCCCN)C(=O)N[C@@H](CCCCNC(=O)CCCC[C@@H]1SC[C@@H]2NC(=O)N[C@@H]21)C(N)=O [Clone D106] (H-KVFWNCRSQQLDFYEWFEQAAKK(Biotin)-NH2) | 6.2 | 0.97 | – | – |
| CC(C)C[C@H](NC(=O)[C@H](C)NC(=O)[C@H](C)NC(=O)[C@H](CCC(N)=O)NC(=O)[C@@H]1CCCN1C(=O)[C@@H](NC(=O)[C@@H](NC(=O)[C@H](Cc1ccc(O)cc1)NC(=O)[C@H](Cc1c[nH]cn1)NC(=O)[C@H](CO)NC(=O)[C@H](CCC(=O)O)NC(=O)[C@H](CC(C)C)NC(=O)[C@@H](N)CCCCN)C(C)C)C(C)C)C(=O)N[C@@H](CC(=O)O)C(=O)N[C@@H](CCCNC(=N)N)C(=O)N[C@@H](CC(C)C)C(=O)N[C@@H](Cc1ccccc1)C(=O)N[C@@H](Cc1ccc(O)cc1)C(=O)N[C@@H](CO)C(=O)N[C@@H](Cc1c[nH]c2ccccc12)C(=O)N[C@@H](Cc1ccccc1)C(=O)N[C@@H](CO)C(=O)N[C@@H](CCCCN)C(=O)N[C@@H](CCCCNC(=O)CCCC[C@@H]1SC[C@@H]2NC(=O)N[C@@H]21)C(N)=O [Clone D107] (H-KLESHYVVPQAALDRLFYSWFSKK(Biotin)-NH2) | 9.7 | 1.1 | – | – |
| CC(C)C[C@H](NC(=O)[C@H](CCC(N)=O)NC(=O)[C@H](CCCNC(=N)N)NC(=O)[C@H](CO)NC(=O)[C@H](Cc1ccccc1)NC(=O)[C@H](Cc1c[nH]c2ccccc12)NC(=O)CNC(=O)[C@H](Cc1ccc(O)cc1)NC(=O)[C@H](Cc1ccccc1)NC(=O)[C@@H](N)CCCCN)C(=O)N[C@@H](CO)C(=O)N[C@@H](CC(C)C)C(=O)N[C@H](C(=O)N1CCC[C@H]1C(=O)N[C@@H](CCCNC(=N)N)C(=O)N[C@@H](CC(=O)O)C(=O)N[C@@H](CC(=O)O)C(=O)N[C@@H](Cc1c[nH]c2ccccc12)C(=O)NCC(=O)N[C@@H](CC(C)C)C(=O)N1CCC[C@H]1C(=O)N[C@@H](CCCCN)C(=O)N[C@@H](CCCCNC(=O)CCCC[C@@H]1SC[C@@H]2NC(=O)N[C@@H]21)C(N)=O)[C@@H](C)O [Clone D108] (H-KFYGWFSRQLSLTPRDDWGLPKK(Biotin)-NH2) | 19 | 2.3 | – | – |
| CC(C)C[C@H](NC(=O)CNC(=O)[C@H](CC(=O)O)NC(=O)[C@H](CCC(N)=O)NC(=O)[C@H](CCCCN)NC(=O)[C@H](CC(N)=O)NC(=O)[C@H](CO)NC(=O)[C@@H](NC(=O)[C@H](CC(C)C)NC(=O)CNC(=O)[C@@H]1CCCN1C(=O)[C@H](C)NC(=O)[C@H](CO)NC(=O)[C@@H](N)CCCCN)C(C)C)C(=O)N[C@@H](Cc1ccccc1)C(=O)N[C@@H](Cc1ccc(O)cc1)C(=O)N[C@@H](CO)C(=O)N[C@@H](Cc1c[nH]c2ccccc12)C(=O)N[C@@H](Cc1ccccc1)C(=O)N[C@@H](CCCNC(=N)N)C(=O)N[C@@H](CCC(=O)O)C(=O)N[C@@H](CCCCN)C(=O)N[C@@H](CCCCNC(=O)CCCC[C@@H]1SC[C@@H]2NC(=O)N[C@@H]21)C(N)=O [Clone D109] (H-KSAPGLVSNKQDGLFYSWFREKK(Biotin)-NH2) | 12 | 3.6 | – | – |
| CC(C)[C@H](NC(=O)[C@H](Cc1ccccc1)NC(=O)[C@H](Cc1c[nH]c2ccccc12)NC(=O)[C@H](CC(=O)O)NC(=O)[C@H](Cc1ccc(O)cc1)NC(=O)[C@H](Cc1ccccc1)NC(=O)[C@H](CC(N)=O)NC(=O)[C@H](CCCCN)NC(=O)[C@H](C)NC(=O)[C@@H](N)CO)C(=O)N[C@@H](CCCCN)C(=O)N[C@@H](CCCCNC(=O)CCCC[C@@H]1SC[C@@H]2NC(=O)N[C@@H]21)C(N)=O [Clone D114] (H-SAKNFYDWFVKK(Biotin)-NH2) | > 20 | 8.1 | – | – |
| CC(C)[C@H](NC(=O)[C@H](Cc1ccccc1)NC(=O)[C@H](Cc1c[nH]c2ccccc12)NC(=O)[C@H](CC(=O)O)NC(=O)[C@H](Cc1ccc(O)cc1)NC(=O)[C@H](Cc1ccccc1)NC(=O)[C@H](CC(N)=O)NC(=O)[C@H](CCC(=O)O)NC(=O)[C@H](Cc1c[nH]cn1)NC(=O)[C@@H](N)Cc1ccccc1)C(=O)N[C@@H](CCCNC(=N)N)C(=O)N[C@@H](CCC(N)=O)C(=O)N[C@H](C(=O)N[C@@H](CO)C(=O)N[C@@H](CCCCN)C(=O)N[C@@H](CCCCN)C(=O)O)C(C)C [Clone D117A] | 5.1 | – | – | – |
| CC[C@H](C)[C@H](NC(=O)[C@H](CCC(=O)O)NC(=O)[C@@H](N)CCCCN)C(=O)N[C@@H](CCC(=O)O)C(=O)N[C@@H](C)C(=O)N[C@@H](CCC(=O)O)C(=O)N[C@@H](Cc1c[nH]c2ccccc12)C(=O)NCC(=O)N[C@@H](CCCNC(=N)N)C(=O)N[C@H](C(=O)N[C@@H](CCCNC(=N)N)C(=O)N[C@H]1CSSC[C@@H](C(=O)N[C@H](C(=O)NCC(=O)NCC(=O)N[C@@H](CCCCN)C(=O)N[C@@H](CCCCNC(=O)CCCC[C@@H]2SC[C@@H]3NC(=O)N[C@@H]32)C(=O)O)C(C)C)NC(=O)[C@H](CCCNC(=N)N)NC(=O)CNC(=O)[C@H](Cc2ccc(O)cc2)NC(=O)[C@H](C(C)C)NC(=O)[C@H](CC(C)C)NC1=O)C(C)C [Clone D122A] (H-KEIEAEWGRVRCLVYGRCVGGKK(Biotin)-OH; disulfide 12-18 (inferred); N-terminus assumed) | – | – | – | Ratio [1]: >20 |
| CC(C)C[C@@H]1NC(=O)[C@H](CO)NC(=O)[C@H](C)NC(=O)CNC(=O)[C@H](Cc2c[nH]c3ccccc23)NC(=O)[C@H](Cc2ccccc2)NC(=O)[C@H](CC(C)C)NC(=O)[C@H](CCC(=O)O)NC(=O)[C@H](CCC(=O)O)NC(=O)[C@H](CC(C)C)NC(=O)[C@H](C(C)C)NC(=O)[C@@H](NC(=O)[C@H](CC(C)C)NC(=O)[C@H](Cc2c[nH]cn2)NC(=O)[C@@H](N)CCCCN)CSSC[C@@H](C(=O)N[C@@H](CO)C(=O)NCC(=O)N[C@@H](CCCCN)C(=O)N[C@@H](CCCCNC(=O)CCCC[C@@H]2SC[C@@H]3NC(=O)N[C@@H]32)C(=O)O)NC(=O)[C@H](Cc2ccc(O)cc2)NC(=O)CNC(=O)[C@H](Cc2ccccc2)NC1=O [Clone D124A] (H-KHLCVLEELFWGASLFGYCSGKK(Biotin)-OH; disulfide 4-19 (inferred); N-terminus assumed) | – | – | – | Ratio [1]: >200 |

Second part, led by results:

| Kd [1] [µM] | Kd ([2]; read-out: Kd (µM) HIR) [µM] | Kd ([2]; read-out: HIR affinity) [µM] | Compound | further results |
| --- | --- | --- | --- | --- |
| – | – | > 20 | Ac-FYDWF-NH2 [Clone S184] | FFC (adipocytes): 0 |
| – | – | > 20 | FHENFYDAFVRQVSKK [Clone S222] | FFC (adipocytes): 0 |
| – | – | > 20 | HLSVGEELSWWVALLGQWAR-NH2 [Clone S282] | – |
| – | – | 2.3 | LDRQFYRYFQDLLVGFM-NH2 [Clone S260] | – |
| – | – | 5.9 | QAPSNFYDWFVREWDEE-NH2 [Clone S287] | – |
| – | – | 4.3 | QSFYDYIEELLGGEWKK-NH2 [Clone S288] | – |
| – | – | 14 | RWPNFYGYFESLLTHFS-NH2 [Clone S257] | – |
| – | – | 0.11 | TGHRLGLDEQFYWWFRDALSG-NH2 [Clone S265] | – |
| – | – | > 20 | WGRSFYRYFETLLAQGI-NH2 [Clone S261] | – |
